Experimental data as given in US11214803B2, “Modulators of YAP1 expression” (Ionis Pharmaceuticals, Inc., priority 2019, dated 2022).
Strand notation (5' to 3'): a small letter for the sugar, then the base; units joined by * are phosphorothioate-linked, units joined directly phosphodiester-linked; [ ] holds rarer units or linkages, { } end groups; capitals alone tell only the bases. k = constrained ethyl (cEt); [5mC] = 5-methylcytosine; d = 2'-deoxy (DNA)

How the values were obtained:
[1] = system: Yap1 mRNA; assay: Antisense inhibition of human Yap1 in A-431 cells by cEt gapmers, single dose (Example 3, RTS36584); assay type: cell-based
Summary of the method: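 Read-out is Yap1 mRNA as percent of untreated control, by quantitative RT-PCR normalized to total RNA (RiboGreen). Cells (A-431) received 2,000 nM of 3-10-3 cEt phosphorothioate gapmer via free uptake for roughly 48 hours.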

[2] = system: Yap1 mRNA; assay: Dose-dependent inhibition of human Yap1 in A-431 cells (Example 8, 10,000 cells per well, RTS4814); assay type: cell-based; conditions: for % UTC (Yap1 mRNA) / IC50: A-431 cells; for Yap1 mRNA, % UTC: A-431 cells, 10,000 cells per well
Summary of the method: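 Yap1 mRNA, normalized to RIBOGREEN total RNA and expressed as % untreated control, was read with RTS4814 about 48 h after free-uptake oligonucleotide treatment of A-431 cells at 10,000 cells/well. IC50 derived by linear regression of log/linear data.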

[3] = Table 35, Yap1 mRNA as percent of untreated control, 3-10-3 cEt gapmers targeting SEQ ID NO: 1 and 2, single dose
[4] = Table 26, Yap1 mRNA by 3-10-3 cEt gapmers targeting SEQ ID NO.: 1, and 2, percent of untreated control
[5] = 31.3 nM, free uptake, approximately 48 hours, RTS4814
[6] = 125.0 nM, free uptake, approximately 48 hours, RTS4814
[7] = 500.0 nM, free uptake, approximately 48 hours, RTS4814
[8] = 2000.00 nM, free uptake, approximately 48 hours, RTS4814
[9] = free uptake, approximately 48 hours, RTS4814, linear regression on log/linear plot
[10] = Table 34, Yap1 mRNA as percent of untreated control, 3-10-3 cEt gapmers targeting SEQ ID NO: 1 and 2, single dose
[11] = Table 29, Yap1 mRNA as percent of untreated control, 3-10-3 cEt gapmers targeting SEQ ID NO.: 1, and 2
[12] = Table 28, Yap1 mRNA as percent of untreated control, 3-10-3 cEt gapmers targeting SEQ ID NO.: 1, and 2
[13] = Table 27, Yap1 mRNA by 3-10-3 cEt gapmers targeting SEQ ID NO.: 1, and 2, percent of untreated control

Substance	YAP1 (% UTC) [1, 3] [% UTC]	% UTC (Yap1 mRNA) ([2]; 31.3 nM) [% UTC]	% UTC (Yap1 mRNA) ([2]; 125.0 nM) [% UTC]	% UTC (Yap1 mRNA) ([2]; 500.0 nM) [% UTC]	% UTC (Yap1 mRNA) ([2]; 2000.00 nM) [% UTC]	IC50 ([2]; Yap1 mRNA) [µM]	YAP1 (% UTC) [1, 4] [% UTC]	Yap1 mRNA, % UTC [2, 5] [% UTC]	Yap1 mRNA, % UTC [2, 6] [% UTC]	Yap1 mRNA, % UTC [2, 7] [% UTC]	Yap1 mRNA, % UTC [2, 8] [% UTC]	IC50 [2, 9] [µM]	YAP1 (% UTC) [1, 10] [% UTC]	YAP1 (% UTC) [1, 11] [% UTC]	YAP1 (% UTC) [1, 12] [% UTC]	YAP1 (% UTC) [1, 13] [% UTC]
1074549 (DNA kT*kA*kT*d[5mC]*dT*dA*d[5mC]*d[5mC]*dG*dT*dA*dT*dG*k[5mC]*k[5mC]*k[5mC]; antisense) [compound 1074549]	6	67	31	12	7	0.1										
1074485 (kT*kT*k[5mC]*dA*d[5mC]*dT*dA*dA*dT*dA*dT*dG*dG*kT*k[5mC]*kA; antisense) [compound 1074485]	4	47	14	5	3	< 0.02										
1076460 (kT*kA*kA*dT*dA*dT*dA*dG*d[5mC]*d[5mC]*d[5mC]*d[5mC]*dT*kT*k[5mC]*kA; antisense) [compound 1076460]							7	79	53	25	12	0.2				
1074484 (kT*k[5mC]*kA*d[5mC]*dT*dA*dA*dT*dA*dT*dG*dG*dT*k[5mC]*kA*kT; antisense) [compound 1074484]								43	12	5	3	< 0.02	3			
1074508 (kG*kA*kG*dA*dG*dA*dG*d[5mC]*dA*dG*dA*dT*dA*kA*kT*k[5mC]; antisense) [compound 1074508]							7	62	30	14	8	0.05				
1075983 (kA*kT*k[5mC]*dG*dA*dA*dA*dA*dG*d[5mC]*dA*dA*dA*k[5mC]*kT*k[5mC]; antisense) [compound 1075983]								81	46	17	6	0.1		5		
1075893 (antisense k[5mC]*kG*kT*dG*dA*dA*dA*dA*dA*dG*dA*dT*dG*kT*kG*kG) [compound 1075893]	7	80	29	11	8	0.1										
1075246 (kG*kA*kT*dA*dA*d[5mC]*dT*dA*dG*dT*dA*dA*d[5mC]*k[5mC]*kG*kT; antisense) [compound 1075246]								70	34	12	6	0.1			6	
1076461 (kG*kA*kT*dT*dA*dA*dT*dA*dT*dA*dG*d[5mC]*d[5mC]*k[5mC]*k[5mC]*kT; antisense) [compound 1076461]								65	24	7	3	0.04				3
1074221 (antisense kG*kA*kA*dT*dG*dA*dG*d[5mC]*dT*d[5mC]*dG*dA*dA*k[5mC]*kA*kT) [compound 1074221]								75	38	14	7	0.1				6
1074445 (kT*kG*kA*dT*dA*dG*d[5mC]*dA*d[5mC]*dT*dA*dG*dG*kA*kG*kG; antisense) [compound 1074445]								57	19	8	6	< 0.02				6
1076143 (kG*kA*kT*dA*d[5mC]*dG*dA*dA*dA*dA*dA*dA*dG*k[5mC]*k[5mC]*kA; antisense) [compound 1076143]								81	48	20	9	0.1		8		
1074222 (antisense kA*kG*kG*dA*dA*dT*dG*dA*dG*d[5mC]*dT*d[5mC]*dG*kA*kA*k[5mC]) [compound 1074222]								59	21	8	5	< 0.02			5	
1074509 (kT*kG*kT*dT*dA*dT*dG*dT*dT*dT*dG*dG*dG*kT*kG*kT; antisense) [compound 1074509]								44	12	6	5	< 0.02				5
1075061 (antisense k[5mC]*k[5mC]*kT*dT*dA*dT*dA*d[5mC]*dT*dT*dT*dT*dA*kG*k[5mC]*k[5mC]) [compound 1075061]	5	58	23	9	6	< 0.02										
1074447 (kA*kA*kT*dG*dA*dT*dA*dG*d[5mC]*dA*d[5mC]*dT*dA*kG*kG*kA; antisense) [compound 1074447]								47	20	8	5	< 0.02		4		
1074414 (kA*kA*k[5mC]*dT*dG*dT*dG*dA*dA*dA*dG*dA*dG*kG*kT*k[5mC]; antisense) [compound 1074414]								64	34	14	7	0.1			6	
1076494 (k[5mC]*kT*kA*dA*dT*dT*dG*dA*dA*dG*d[5mC]*dT*dG*kG*k[5mC]*kA; antisense) [compound 1076494]								34	7	3	2	< 0.02			3	
1075757 (k[5mC]*kT*kT*dA*dA*dT*dA*d[5mC]*dA*dT*dT*dA*dT*kT*k[5mC]*k[5mC]; antisense) [compound 1075757]								43	14	5	2	< 0.02				2
1075084 (antisense kT*kG*kA*d[5mC]*dA*dA*d[5mC]*dA*dA*d[5mC]*dA*d[5mC]*dT*k[5mC]*k[5mC]*kT) [compound 1075084]							9	103	72	37	14	0.3				
1074676 (antisense k[5mC]*kA*kA*dA*dT*dT*dA*dT*dA*dG*dG*d[5mC]*dA*k[5mC]*kT*k[5mC]) [compound 1074676]		54	16	6	5	< 0.02							4			
1076524 (kA*kA*kT*dT*dT*dA*dT*dA*dT*d[5mC]*dA*dG*dG*kT*k[5mC]*kA; antisense) [compound 1076524]							6	71	30	12	7	0.1				
1074446 (kA*kT*kG*dA*dT*dA*dG*d[5mC]*dA*d[5mC]*dT*dA*dG*kG*kA*kG; antisense) [compound 1074446]								39	11	5	3	< 0.02			3	
1074548 (kA*kT*k[5mC]*dT*dA*d[5mC]*d[5mC]*dG*dT*dA*dT*dG*d[5mC]*k[5mC]*k[5mC]*kA; antisense) [compound 1074548]		50	15	7	8	< 0.02							4			
